The assay deals with T1, hmGluR4 (Homo sapiens, UniProt Q14833).
T1 construct: host or cells: HEK293T
Put plainly: HEK-293 mGluR4 cells cAMP assay with EC20 L-Glutamate (HTRF). The format is cell-based. Particulars: positive allosteric activity at EC20 L-Glutamate, 10 μM Forskolin, HEK293T mGluR4 cells, cAMP HTRF; read-out: hrmGluR4/HEK293T-hmGluR4 (EC50). The gist of the method:
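PAM mode in mGluR4 HEK293T suspension cells, glutamine-starved overnight; 10 μM forskolin (final) with EC20 L-glutamate (2.3 μM), 2000 cells/well, 30 min at 37 °C. cAMP measured by two-step HTRF after 60 min at room temperature. Basal control EC20 glutamate; EC100 400 μM glutamate (2×).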

Bounds are passed on as bounds.

T1 sequence (Q14833 33-912): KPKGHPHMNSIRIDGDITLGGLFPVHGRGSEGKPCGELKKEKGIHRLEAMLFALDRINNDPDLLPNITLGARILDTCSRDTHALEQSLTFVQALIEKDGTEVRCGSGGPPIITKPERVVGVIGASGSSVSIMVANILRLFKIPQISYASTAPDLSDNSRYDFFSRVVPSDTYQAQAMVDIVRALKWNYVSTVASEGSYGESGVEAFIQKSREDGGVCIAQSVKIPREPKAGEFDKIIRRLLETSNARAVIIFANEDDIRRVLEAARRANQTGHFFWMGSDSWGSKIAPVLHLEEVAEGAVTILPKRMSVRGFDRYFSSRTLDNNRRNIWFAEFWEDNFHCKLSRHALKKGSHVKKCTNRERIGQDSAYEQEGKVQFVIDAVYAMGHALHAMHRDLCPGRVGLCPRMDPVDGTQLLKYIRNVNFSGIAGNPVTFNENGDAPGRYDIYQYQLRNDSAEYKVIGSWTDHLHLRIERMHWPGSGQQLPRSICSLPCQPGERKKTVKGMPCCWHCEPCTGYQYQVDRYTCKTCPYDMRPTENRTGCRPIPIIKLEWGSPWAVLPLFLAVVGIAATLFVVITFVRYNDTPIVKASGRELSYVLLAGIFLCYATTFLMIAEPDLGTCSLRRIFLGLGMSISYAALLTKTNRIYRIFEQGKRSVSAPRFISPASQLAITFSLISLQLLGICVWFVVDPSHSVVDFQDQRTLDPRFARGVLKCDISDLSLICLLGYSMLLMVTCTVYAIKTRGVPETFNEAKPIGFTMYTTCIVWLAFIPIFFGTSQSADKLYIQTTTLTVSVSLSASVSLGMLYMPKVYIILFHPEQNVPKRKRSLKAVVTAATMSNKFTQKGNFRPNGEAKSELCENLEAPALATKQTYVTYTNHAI

With `O=C1c2ccc(N3CCOCC3)cc2NC2(CCN(Cc3ccc(F)c(F)c3)CC2)N1c1ccc(OC(F)(F)F)cc1` [Compound 21, 1-(3,4-Difluorobenzyl)-7′-morpholino-3′-(4-(trifluoromethoxy)phenyl)-1′H-spiro[piperidine-4,2′-quinazolin]-4′(3′H)-one], the EC50 is less than 1000 nM.

Consider `COCCOc1ccc(N2C(=O)c3ccc(F)cc3NC23CN(Cc2ccc(Cl)cc2)C3)cc1` [Compound 123, 1-(4-Chlorobenzyl)-7′-fluoro-3′-(4-(2-methoxyethoxyl)phenyl)-1′H-spiro[azetidine-3,2′-quinazolin]-4′(3′H)-one], for which the EC50 lay in the range of 1000 to 10000 nM. For `O=C1c2ccc(F)cc2NC2(CCN(Cc3ccc(F)c(F)c3)CC2)N1c1ccc(Br)cc1` [Compound 51, 3′-(4-Bromophenyl)-1-(3,4-difluorobenzyl)-7′-fluoro-1′H-spiro[piperidine-4,2′-quinazolin]-4′(3′H)-one] the value was less than 1000 nM; for `COc1ccc(N2C(=O)c3ccccc3NC23CN(Cc2c(F)cccc2F)C3)cc1` [Compound 95, 1-(2,6-Difluorobenzyl)-3′-(4-methoxyphenyl)-1′H-spiro[azetidine-3,2′-quinazolin]-4′(3′H)-one], 1000 to 10000 nM; for `CC(c1ccc(F)c(F)c1)N1CCC2(CC1)Nc1cc(Br)ccc1C(=O)N2c1ccc(OC(F)(F)F)cc1` (stereo not shown) [Compound 8, 7′-Bromo-1-(1-(3,4-difluorophenyl)ethyl)-3′-(4-(trifluoromethoxy)phenyl)-1′H-spiro[piperidine-4,2′-quinazolin]-4′(3′H)-one], less than 1000 nM. In the case of `CC(c1ccccc1)N1CCC2(CC1)Nc1cc(Br)ccc1C(=O)N2c1ccc(Cl)cc1` (stereo not shown) [Compound 26, 7′-Bromo-3′-(4-chlorophenyl)-1-(1-phenylethyl)-1′H-spiro[piperidine-4,2′-quinazolin]-4′(3′H)-one] it was less than 1000 nM; in that of `COc1ccc(N2C(=O)c3ccc(Cl)cc3NC23CCN(Cc2ccccc2Cl)CC3)cc1` [Compound 62, 7′-Chloro-1-(2-chlorobenzyl)-3′-(4-methoxyphenyl)-1′H-spiro[piperidine-4,2′-quinazolin]-4′(3′H)-one], less than 1000 nM; in that of `O=C1c2ccc(Br)cc2NC2(CCN(Cc3ccc(F)c(F)c3)CC2)N1c1ccc(OC(F)(F)F)c(Cl)c1` [Compound 102, 7′-Bromo-3′-(3-chloro-4-(trifluoromethoxy)phenyl)-1-(3,4-difluorobenzyl)-1′H-spiro[piperidine-4,2′-quinazolin]-4′(3′H)-one], 1000 to 10000 nM. In the case of `CCc1ccc2c(c1)NC1(CCN(Cc3ccc(F)c(F)c3)CC1)N(c1ccc(OC)cc1)C2=O` [Compound 63, 1-(3,4-Difluorobenzyl)-7′-ethyl-3′-(4-methoxyphenyl)-1′H-spiro[piperidine-4,2′-quinazolin]-4′(3′H)-one] it was less than 1000 nM.

Turning to `COc1ccc(N2C(=O)c3ccccc3NC23CN(Cc2ccccc2C)C3)cc1` [Compound 94, 3′-(4-Methoxyphenyl)-1-(2-methylbenzyl)-1′H-spiro[azetidine-3,2′-quinazolin]-4′(3′H)-one], the EC50 was in the range of 1000 to 10000 nM. As to `COc1ccc(N2C(=O)c3ccccc3NC23CCC(NC(=O)OC(C)(C)C)CC3)cc1` (stereo not shown) [Compound 88, tert-Butyl (3′-(4-methoxyphenyl)-4′-oxo-3′,4′-dihydro-1′H-spiro[cyclohexane-1,2′-quinazolin]-4-yl)carbamate], the EC50 was 1000 to 10000 nM. In the case of `COc1ccc(N2C(=O)c3ccc(OC)cc3NC23CCN(Cc2cccc(C#N)c2)CC3)cc1` [Compound 100, 3-((7′-Methoxy-3′-(4-methoxyphenyl)-4′-oxo-3′,4′-dihydro-1′H-spiro[piperidine-4,2′-quinazolin]-1-yl)methyl)benzonitrile] it was 1000 to 10000 nM; in that of `COc1ccc(N2C(=O)c3ccc(Cl)cc3NC23CCN(Cc2cccc(Cl)c2)CC3)cc1` [Compound 38, 7′-Chloro-1-(3-chlorobenzyl)-3′-(4-methoxyphenyl)-1′H-spiro[piperidine-4,2′-quinazolin]-4′(3′H)-one], less than 1000 nM; in that of `COc1ccc(N2C(=O)c3ccccc3NC23CN(Cc2cccc4ccccc24)C3)cc1` [Compound 86, 3′-(4-Methoxyphenyl)-1-(naphthalen-1-ylmethyl)-1′H-spiro[azetidine-3,2′-quinazolin]-4′(3′H)-one], 1000 to 10000 nM. For `COc1ccc(N2C(=O)c3ccc(C(=O)OC(C)C)cc3NC23CCN(Cc2ccc(F)c(F)c2)CC3)cc1` [Compound 3, Isopropyl 1-(3,4-difluorobenzyl)-3′-(4-methoxyphenyl)-4′-oxo-3′,4′-dihydro-1′H-spiro[piperidine-4,2′-quinazoline]-7′-carboxylate] the value was less than 1000 nM. Consider `O=C1c2ccc(Br)cc2NC2(CCN(Cc3ccncc3)CC2)N1c1ccc(OC(F)(F)F)cc1` [Compound 97, 7′-Bromo-1-(pyridin-4-ylmethyl)-3′-(4-(trifluoromethoxy)phenyl)-1′H-spiro[piperidine-4,2′-quinazolin]-4′(3′H)-one], for which the EC50 is 1000 to 10000 nM.

For `CCC(c1ccccc1)N1CCC2(CC1)Nc1cc(Br)ccc1C(=O)N2c1ccc(Cl)cc1` (stereo not shown) [Compound 61, 7′-Bromo-3′-(4-chlorophenyl)-1-(1-phenylpropyl)-1′H-spiro[piperidine-4,2′-quinazolin]-4′(3′H)-one], the EC50 was less than 1000 nM. For `O=C1c2ccc(F)cc2NC2(CCN(Cc3ccc(F)c(F)c3)CC2)N1c1ccc(OC(F)(F)F)cc1` [Compound 69, 1-(3,4-Difluorobenzyl)-7′-fluoro-3′-(4-(trifluoromethoxy)phenyl)-1′H-spiro[piperidine-4,2′-quinazolin]-4′(3′H)-one] the value was 1000 to 10000 nM; for `COCCOc1ccc(N2C(=O)c3ccc(F)cc3NC23CCN(Cc2ccc(F)c(F)c2)CC3)cc1` [Compound 106, 1-(3,4-difluorobenzyl)-7′-fluoro-3′-(4-(2-methoxyethoxyl)phenyl)-1′H-spiro[piperidine-4,2′-quinazolin]-4′(3′H)-one], 1000 to 10000 nM; for `O=C1c2ccc(Br)cc2NC2(CCN(Cc3cccnc3)CC2)N1c1ccc(OC(F)(F)F)cc1` [Compound 118, 7′-Bromo-1-(pyridin-3-ylmethyl)-3′-(4-(trifluoromethoxy)phenyl)-1′H-spiro[piperidine-4,2′-quinazolin]-4′(3′H)-one], 1000 to 10000 nM.

For the molecule `Cc1cc2cc(N3C(=O)c4ccc(Br)cc4NC34CCN(Cc3ccc(F)c(F)c3)CC4)ccc2o1` [Compound 2, 7′-Bromo-1-(3,4-difluorobenzyl)-3′-(2-methylbenzofuran-5-yl)-1′H-spiro[piperidine-4,2′-quinazolin]-4′(3′H)-one], the EC50 was less than 1000 nM.

Consider `O=C1c2ccc(-c3ccco3)cc2NC2(CCN(Cc3ccc(F)c(F)c3)CC2)N1c1ccc(OC(F)(F)F)cc1` [Compound 6, 1-(3,4-Difluorobenzyl)-7′-(furan-2-yl)-3′-(4-(trifluoromethoxy)phenyl)-1′H-spiro[piperidine-4,2′-quinazolin]-4′(3′H)-one], for which the EC50 was less than 1000 nM. For `COC(=O)c1ccc2c(c1)NC1(CCN(Cc3ccc(F)c(F)c3)CC1)N(c1ccc(OC)cc1)C2=O` [Compound 4, Methyl 1-(3,4-difluorobenzyl)-3′-(4-methoxyphenyl)-4′-oxo-3′,4′-dihydro-1′H-spiro[piperidine-4,2′-quinazoline]-7′-carboxylate] the value was less than 1000 nM; for `COc1ccc(N2C(=O)c3cc(O)ccc3NC23CCN(Cc2ccc(F)c(F)c2)CC3)cc1` [Compound 122, 1-(3,4-Difluorobenzyl)-6′-hydroxy-3′-(4-methoxyphenyl)-1′H-spiro[piperidine-4,2′-quinazolin]-4′(3′H)-one], 1000 to 10000 nM. In the case of `O=C1c2ccc(F)cc2NC2(CN(C(c3ccc(F)c(F)c3)C(F)(F)F)C2)N1c1ccc(OC(F)(F)F)cc1` (stereo not shown) [Compound 78, 1-(1-(3,4-Difluorophenyl)-2,2,2-trifluoroethyl)-7′-fluoro-3′-(4-(trifluoromethoxy)phenyl)-1′H-spiro[azetidine-3,2′-quinazolin]-4′(3′H)-one] it was 1000 to 10000 nM.

Values taken from patent publication US9708321B2, “Spiro-quinazolinone derivatives and their use as positive allosteric modulators of mGluR4” (Merck Patent GmbH, priority 2013, dated 2017).
